The target of data set [1] is T1, Glucocorticoid receptor (Homo sapiens, UniProt P04150).
T1 sequence (P04150 whole entry): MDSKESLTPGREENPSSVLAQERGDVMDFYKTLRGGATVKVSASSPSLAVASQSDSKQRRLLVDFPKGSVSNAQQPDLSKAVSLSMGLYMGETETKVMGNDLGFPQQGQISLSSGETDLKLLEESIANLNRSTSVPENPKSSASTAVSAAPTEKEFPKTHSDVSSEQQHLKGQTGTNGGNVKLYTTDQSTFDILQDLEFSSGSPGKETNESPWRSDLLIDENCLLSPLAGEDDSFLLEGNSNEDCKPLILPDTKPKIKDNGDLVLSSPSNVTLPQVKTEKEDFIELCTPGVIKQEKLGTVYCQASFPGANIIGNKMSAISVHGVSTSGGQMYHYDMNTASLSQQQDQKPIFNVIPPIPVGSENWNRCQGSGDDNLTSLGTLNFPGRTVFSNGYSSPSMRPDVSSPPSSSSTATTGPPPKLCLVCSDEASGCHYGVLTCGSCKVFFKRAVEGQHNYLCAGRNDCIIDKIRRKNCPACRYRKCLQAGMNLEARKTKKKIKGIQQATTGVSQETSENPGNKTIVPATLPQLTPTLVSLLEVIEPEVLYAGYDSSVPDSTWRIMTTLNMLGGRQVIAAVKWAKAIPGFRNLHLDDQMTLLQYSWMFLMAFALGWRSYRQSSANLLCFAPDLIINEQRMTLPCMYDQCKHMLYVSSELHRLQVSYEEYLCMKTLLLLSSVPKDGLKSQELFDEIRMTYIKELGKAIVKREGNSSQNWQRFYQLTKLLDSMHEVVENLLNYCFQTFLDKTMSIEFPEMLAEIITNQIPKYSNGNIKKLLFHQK
Description: Displacement of radiolabeled Dexamethasone from human GR.

Data set [2] deals with T1, Glucocorticoid receptor. The data set is described as follows: Inhibition of human GR expressed in hGRAF cells. The class given is cell-based.
For data set [3], the target named is T1, Glucocorticoid receptor. The data set is described as follows: Inhibition of human GR transcriptional activation by HepTAT cells. The class given is cell-based.
Data set [4] concerns Rattus norvegicus. Description: Inhibition of prednisilone-induced TAT level in Sprague-Dawley rats at 100 mg/kg, po. In kind it is functional.
The test system of data set [5] is Rattus norvegicus. Description: Inhibition of prednisilone-induced glycogen depostion in Sprague-Dawley rats at 100 mg/kg, po. The class given is functional.
Data set [6] deals with Rattus norvegicus. The data set is described as follows: Inhibition of prednisilone-induced lymphopenia in Sprague-Dawley rats at 100 mg/kg, po. The class given is functional.
Data set [7] can be described thus: Drug level in Sprague-Dawley rat liver after 1 hr. The class given is ADME, tissue-based. The following applies: read-out: Activity.
Data set [8] is described as follows: Ratio of drug level in liver to plasma in Sprague-Dawley rat at 1 hr. The class given is ADME, tissue-based. The following applies: liver and plasma.

What is called Ki is the dissociation constant of the complex between target and ligand, obtained from inhibition or displacement. Lower therefore signals a stronger hold on the target. Regarding `CC#C[C@]1(O)CC[C@H]2[C@@H]3CCC4=CC(=O)CCC4=C3[C@@H](c3ccc(N(C)CC(=O)N(Cc4ccccc4)Cc4ccc(C(=O)O)cc4)cc3)C[C@@]21C`, the inhibition constant (Ki) on Glucocorticoid receptor [1] was determined as 0.0011 µM; on Glucocorticoid receptor [2], 0.039 µM; at Glucocorticoid receptor [3] it was 0.057 µM.

As a reminder, the inhibition in vivo is the drop in the measured response relative to a control, in per cent. As to `CC#C[C@]1(O)CC[C@H]2[C@@H]3CCC4=CC(=O)CCC4=C3[C@@H](c3ccc(N(C)Cc4ccc(C(=O)N[C@H](CCSC)C(=O)O)cc4OC)cc3)C[C@@]21C`, the inhibition in vivo at 100 mg/kg is -27% in the data set with Rattus norvegicus [4], 8% in the data set with Rattus norvegicus [5] and -4% with Rattus norvegicus [6].

Broadly, the Kp is tissue or fluid exposure divided by exposure in the circulation. For `CC#C[C@]1(O)CC[C@H]2[C@@H]3CCC4=CC(=O)CCC4=C3[C@@H](c3ccc(N(C)Cc4ccc(C(C)C(=O)O)cc4)cc3)C[C@@]21C` (stereo partly drawn), in data set [7], the concentration at 1 h was determined as 37000 ng/g. For the same molecule, in data set [8], the Kp at 1 h was 17.

As to `CC#C[C@]1(O)CC[C@H]2[C@@H]3CCC4=CC(=O)CCC4=C3[C@@H](c3ccc(N(C)CC(=O)N(C)Cc4cccc(C(=O)O)c4)cc3)C[C@@]21C`, the inhibition in vivo at 100 mg/kg in the data set with Rattus norvegicus [4] is 20%; with Rattus norvegicus [5], 9%; in the data set on Rattus norvegicus [6], -10%.

Consider `CC#C[C@]1(O)CC[C@H]2[C@@H]3CCC4=CC(=O)CCC4=C3[C@@H](c3ccc(N(C)Cc4ccc(C(=O)O)cc4)cc3)C[C@@]21C`, for which the Ki at Glucocorticoid receptor [1] stood at 0.0018 µM; on Glucocorticoid receptor [2], 0.012 µM; on Glucocorticoid receptor [3] it was 0.052 µM. The inhibition in vivo at 100 mg/kg turned out to be 106% in the data set with Rattus norvegicus [4], 94% in the data set on Rattus norvegicus [5] and 123% in the data set with Rattus norvegicus [6].

Turning to `CC#C[C@]1(O)CC[C@H]2[C@@H]3CCC4=CC(=O)CCC4=C3[C@@H](c3ccc(N(C)CC(=O)Nc4nc(CC(=O)O)cs4)cc3)C[C@@]21C`, the Ki on Glucocorticoid receptor [1] turned out to be 0.035 µM; on Glucocorticoid receptor [2] it was 0.765 µM; on Glucocorticoid receptor [3] it was 0.031 µM.

On to `CC#C[C@]1(O)CC[C@H]2[C@@H]3CCC4=CC(=O)CCC4=C3[C@@H](c3ccc(N(C)Cc4ccc(C(=O)NCC(=O)O)cc4)cc3)C[C@@]21C`, for which the inhibitory constant (Ki) is 0.0006 µM on Glucocorticoid receptor [1], 0.09 µM at Glucocorticoid receptor [2] and 0.036 µM on Glucocorticoid receptor [3]. Also, the inhibition in vivo at 100 mg/kg in the data set on Rattus norvegicus [4] worked out at 48%; in the data set with Rattus norvegicus [5], 47%; with Rattus norvegicus [6] it was 40%.

With `CC#C[C@]1(O)CC[C@H]2[C@@H]3CCC4=CC(=O)CCC4=C3[C@@H](c3ccc(N(C)CC(=O)N(Cc4ccc(C(=O)O)cc4)c4ccc(Br)cc4)cc3)C[C@@]21C`, the Ki is 0.0009 µM at Glucocorticoid receptor [1], 0.033 µM on Glucocorticoid receptor [2] and 0.033 µM on Glucocorticoid receptor [3].

`CC#C[C@]1(O)CC[C@H]2[C@@H]3CCC4=CC(=O)CCC4=C3[C@@H](c3ccc(N(C)Cc4cccc(C(=O)O)c4)cc3)C[C@@]21C`: the Ki at Glucocorticoid receptor [1] amounted to 0.003 µM; at Glucocorticoid receptor [2] it was 0.03 µM; on Glucocorticoid receptor [3], 0.112 µM.

`CC#C[C@]1(O)CC[C@H]2[C@@H]3CCC4=CC(=O)CCC4=C3[C@@H](c3ccc(N(C)CC(=O)N(C)c4ccc(C(=O)O)cc4)cc3)C[C@@]21C`: the inhibitory constant (Ki) on Glucocorticoid receptor [1] was found to be 0.0005 µM; on Glucocorticoid receptor [2] it was 0.021 µM; on Glucocorticoid receptor [3], 0.064 µM.

Regarding `CC#C[C@]1(O)CC[C@H]2[C@@H]3CCC4=CC(=O)CCC4=C3[C@@H](c3ccc(N(C)CCCCC(=O)O)cc3)C[C@@]21C`, the inhibitory constant (Ki) stood at 0.0048 µM on Glucocorticoid receptor [1], 0.015 µM on Glucocorticoid receptor [2] and 0.127 µM on Glucocorticoid receptor [3].

As to `CC#C[C@]1(O)CC[C@H]2[C@@H]3CCC4=CC(=O)CCC4=C3[C@@H](c3ccc(N(C)CC(=O)Nc4ccc(C(=O)O)cc4)cc3)C[C@@]21C`, the inhibitory constant (Ki) on Glucocorticoid receptor [1] was 0.0027 µM; on Glucocorticoid receptor [2] it was 0.0918 µM; on Glucocorticoid receptor [3], 0.075 µM.

Regarding `CC#C[C@]1(O)CC[C@H]2[C@@H]3CCC4=CC(=O)CCC4=C3[C@@H](c3ccc(N(C)Cc4ccc(CC(=O)O)cc4)cc3)C[C@@]21C`, the figures for the inhibition constant Ki at Glucocorticoid receptor [1], at Glucocorticoid receptor [2] and on Glucocorticoid receptor [3] were 0.0018 µM, 0.0044 µM and 0.032 µM, respectively. Moreover, the inhibition in vivo at 100 mg/kg is 95% in the data set on Rattus norvegicus [4], 101% with Rattus norvegicus [5] and 117% in the data set with Rattus norvegicus [6].

As to `CC#C[C@]1(O)CC[C@H]2[C@@H]3CCC4=CC(=O)CCC4=C3[C@@H](c3ccc(N(C)Cc4ccc(C(=O)NCc5cccc(C(=O)O)c5)cc4)cc3)C[C@@]21C`, the inhibition in vivo at 100 mg/kg is 3% with Rattus norvegicus [4], -12% in the data set on Rattus norvegicus [5] and -10% in the data set with Rattus norvegicus [6].

For the molecule `CC#C[C@]1(O)CC[C@H]2[C@@H]3CCC4=CC(=O)CCC4=C3[C@@H](c3ccc(N(C)C)cc3)C[C@@]21C` [MIFEPRISTONE], the inhibition in vivo at 100 mg/kg in the data set on Rattus norvegicus [4] came out at 101%; with Rattus norvegicus [5], 77%; in the data set on Rattus norvegicus [6] it was 104%.

The record behind these values is ChEMBL document CHEMBL1143774, “Parallel strategies for the preparation and selection of liver-targeted glucocorticoid receptor antagonists” (Bioorg Med Chem Lett, 2007).
